Experimental data as given in ChEMBL document CHEMBL1129197, “A rapid synthesis of some 5-amino- nucleosides and nucleotides as potential antiviral compounds” (Bioorg Med Chem Lett, 1996).
pEC50: −log10 of the molar value.

Tests used:
[1] = tested on: C8166; experiment: Compound was evaluated for inhibitory activity against HIV-1 infected C8166 cells.; assay type: functional, cell-based; settings: Homo sapiens
[2] = tested on: C8166; experiment: Concentration which reduces the viability of uninfected C8166 cells by 50%; assay type: functional; settings: Homo sapiens
[3] = Ratio of CC50 to EC50 against HIV-1/C8166 cells was evaluated; assay type: functional

Cc1cn(C2CC(N=[N+]=[N-])C(CN3C(=O)c4ccccc4C3=O)O2)c(=O)[nH]c1=O (centres undefined)
pEC50 [1]: 4.00
CC50 [2]: 1000 µM
Selectivity [3]: 10

Cc1cn([C@H]2C[C@H](N=[N+]=[N-])[C@@H](CO)O2)c(=O)[nH]c1=O [ZIDOVUDINE]
CC50 [2]: > 1000 µM
Selectivity [3]: 62500

Cc1cn(C2CC(N=[N+]=[N-])C(CN)O2)c(=O)[nH]c1=O (centres undefined)
pEC50 [1]: 4.40
CC50 [2]: > 1000 µM
Selectivity [3]: >25

Cc1cn(C2CC(N=[N+]=[N-])C(CNP(=O)(OCC(Cl)(Cl)Cl)OCC(Cl)(Cl)Cl)O2)c(=O)[nH]c1=O (centres undefined)
pEC50 [1]: 4.52
CC50 [2]: 100 µM
Selectivity [3]: 3.3

Cc1cn2c(nc1=O)OC1CC2OC1CN1C(=O)c2ccccc2C1=O (centres undefined)
pEC50 [1]: 3.40
CC50 [2]: > 1000 µM
Selectivity [3]: >2.5
